{"source": "patent US8202852B2", "about": "“Creatine phosphate analog prodrugs, compositions and uses thereof” (XenoPort, Inc., priority 2006, dated 2012)", "origin": "cited, not measured here", "key": {"[1]": {"experiment": "not given", "remark": "listed apart in the source"}, "[2]": {"conditions": "animals, diet containing up to 1%"}}, "note": "Read-outs that look alike come from different tables or passages of the source.", "data": [{"compound": "CN(CC(=O)O)C(=N)N.O", "note": "[creatine monohydrate]", "values": [{"measurement": "adverse side effects", "setting": "athletes and body builders, 2-3 gm/day", "result": "without adverse side effects"}]}, {"compound": "CN(CC(=O)O)C(=N)NP(=O)(O)O", "note": "[creatine phosphate]", "values": [{"measurement": "adverse side effects", "setting": "patients with cardiac diseases, intravenous injection up to 8 gm/day", "result": "without adverse side effects"}]}, {"compound": "CN(CC(=O)O)C(=N)N", "note": "[creatine, Creatine]", "values": [{"measurement": "overall increase in creatine phosphate levels", "setting": "[1]; creatine supplementation, typically takes weeks", "result": "< 50", "unit": "%"}, {"measurement": "increase in cerebral creatine phosphate", "setting": "[1]; healthy volunteers, oral creatine administration", "result": "about 10%"}]}, {"compound": "NC1=NCCN1CC(=O)O", "note": "[cyclocreatine]", "values": [{"measurement": "adverse effects", "setting": "[2]", "result": "do not exhibit adverse effects"}]}]}
